This note sets out measurements from patent US8026237B2, “Pyrrole derivatives as pharmaceutical agents” (Exelixis, Inc., priority 2004, dated 2011).

The structures appear in SMILES notation. Values after ≈ are worked out from the molar mass of the structure shown.

In one data set the target is T1, human MR (GAL4-MR chimera, amino acids 671 to 984) (Homo sapiens, UniProt P08235).
T1 construct: expressed in transfected cells; host or cells: CV-1 (African Green Monkey Kidney Cells)
T1 sequence (P08235 671-984): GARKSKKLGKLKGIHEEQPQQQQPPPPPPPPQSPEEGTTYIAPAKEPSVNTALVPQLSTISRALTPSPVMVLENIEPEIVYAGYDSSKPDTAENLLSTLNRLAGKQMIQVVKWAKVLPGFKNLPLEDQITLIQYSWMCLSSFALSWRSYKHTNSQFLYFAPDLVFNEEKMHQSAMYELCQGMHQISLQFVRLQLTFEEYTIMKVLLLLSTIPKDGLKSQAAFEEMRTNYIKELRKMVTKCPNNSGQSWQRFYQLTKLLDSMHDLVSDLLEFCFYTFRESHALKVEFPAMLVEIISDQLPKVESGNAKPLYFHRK
Description: GAL4-MR cell based assay (antagonist format).
Conditions: not given
Here is the method:
Compound activity was determined in a cell-based assay using a GAL4-MR chimera to identify compounds with the ability to modulate MR activity.
The pCMX-GAL4-MR expression plasmid was constructed by cloning nucleotides encoding amino acids 671 to 984 of human MR (see GenBank sequence AAA59571) into the vector pCMX-GAL4 (Perlmann et al., 1993,Genes & Development 7:1411-1422) comprising nucleotides encoding for amino acids 1-147 of the GAL4 DNA binding domain.
The TK-MH100x4-Luc (GAL4UAS-TK-Luciferase) reporter construct was constructed by insertion of four copies of the Gal4 UAS (Kang et al. 1993, J. Biol. Chem. 268:9629-9635) into the Hind III site of TK-Luc. The parental plasmid, TK-Luc, was prepared by insertion of the Herpes simplex virus thymidine kinase gene promoter (−105 to +51) obtained from the plasmid pBLCAT2 by digestion with HindIII and XhoI (described in Luckow et al., 1987, Nuc. Acid. Res. 15:5490) into the plasmid MMTV-LUC described by Hollenberg and Evans, 1988, Cell 55:899-906) after removal of MMTV-LTR promoter sequence from MMTV-LUC via digestion with HindIII and XhoI. Correct cloning was confirmed by restriction digestion and/or sequencing.
Assays were performed using CV-1 (African Green Monkey Kidney Cells) (ATCC) cells grown in T175 flasks at a density of 3×10^6 cells/flask in DMEM with 5% FBS. Cells were transfected one day after plating at 70-80 percent confluency with a DNA mixture containing (per T175 flask) 9 μg pCMX-GAL4-MR, 9 μg TK-MH100x4-Luc, and 2 μg pCMX β-Gal using the transfection reagent FuGENE6 (Roche Molecular Biochemicals, Indianapolis, Ind.) following recommended protocols and instructions provided by the manufacturer, and incubated with transfection reagents for 5 hours at 37° C.
Transfected cells were trypsinized, resuspended in media, and 45 μL was added to assay plates at a density of approximately 5,000 cells/well using a MultiDrop dispenser (MTX Lab Systems, Inc., VA). The assay plates containing both compounds and screening cells were incubated for approximately 20 hours at 37° C. and 5% CO2 in a tissue culture incubator.
After incubation of the transfected cells with compounds, Lysis buffer (1% Triton X-100, 10% Glycerol, 5 mM DTT, 1 mM EGTA, 25 mM Tricine, pH 7.8) and Luciferin assay buffer (0.73 mM ATP, 22.3 mM Tricine, 0.11 mM EDTA, 33.3 mM DTT, 0.2M MgSO4, 11 mM Luciferin, 6.1 mM Coenzyme A, 0.01 mM HEPES, pH 7.8) were prepared. Media was removed from the plates and lysis buffer and luciferin assay buffer mixed in a 1:1 ratio and then 30 μl of the mixture was added to each well using a Multidrop dispenser. Plates were read on the Northstar (Applied Biosystems, Foster City, Calif.) and data was analyzed using ActivityBase (ID Business Solutions, Ltd., Guildford, Surrey, UK). If required, luciferase values may be normalized for transfection efficiency by measuring β-galactosidase activity based on expression from the pCMX-Gal expression plasmid as described previously (Willy et al., 1995, Gene & Development, 9:1033-1045).
The term IC50 denotes the concentration that inhibits the measured activity by half. Low readings indicate inhibition by little substance, high ones a need for much substance. Compound `Cc1cc(C(=O)NCc2ccc(Oc3ccccc3)cc2)c(C)n1-c1ccccc1C(F)(F)F` [2,5-dimethyl-1-(2-trifluoromethyl-phenyl)-1H-pyrrole-3-carboxylic acid 4-phenoxy-benzylamide] registered an IC50 of 1 to 5 µM.

Consider `Cc1cc(C(=O)Nc2cc(C(F)(F)F)ccc2F)c(C)n1-c1ccccc1C(F)(F)F` [2,5-dimethyl-1-(2-trifluoromethyl-phenyl)-1H-pyrrole-3-carboxylic acid (2-fluoro-5-trifluoromethyl-phenyl)-amide], for which the IC50 was 1 to 5 µM.

On to `Cc1cc(C(=O)NCCc2cccs2)c(C)n1-c1ccccc1C(F)(F)F` [2,5-dimethyl-1-(2-trifluoromethyl-phenyl)-1H-pyrrole-3-carboxylic acid (2-thiophen-2-yl-ethyl)-amide], for which the IC50 was 0.5 to 1 µM.

Regarding `Cc1cc(C(=O)NCCc2ccccc2Cl)c(C)n1-c1ccccc1C(F)(F)F` [2,5-dimethyl-1-(2-trifluoromethyl-phenyl)-1H-pyrrole-3-carboxylic acid [2-(2-chloro-phenyl)-ethyl]-amide], the IC50 is 0.5 to 1 µM.

The compound `Cc1cc(C(=O)NCCc2cccc(Cl)c2)c(C)n1-c1ccccc1C(F)(F)F` [2,5-dimethyl-1-(2-trifluoromethyl-phenyl)-1H-pyrrole-3-carboxylic acid [2-(3-chloro-phenyl)-ethyl]-amide] registered an IC50 of 1 to 5 µM.

`Cc1cc(C(=O)NCCc2ccccc2)c(C)n1-c1ccccc1C(F)(F)F` [2,5-dimethyl-1-(2-trifluoromethyl-phenyl)-1H-pyrrole-3-carboxylic acid phenethyl-amide] returned an IC50 below 0.5 µM.

System in a further data set: not listed separately
Description: Kinetic solubility assay. Conditions: pH 7.4, aqueous buffer, kinetic from dmso stock. How it is done: The kinetic solubility of test compounds in buffer was evaluated using a 96 well filtration plate format. A 500 μM assay solution in PBS, pH7.4 (or other assay buffer, as needed) was generated form a DMSO stock solution (up to 10 mM). Samples were transferred to a 96 Millipore MultiScreen HTS 96-well Filter plate (Cat# MSSLBPC10) mixed by shaking for 1.5 hours and processed by filtration prior to quantitation by HPLC-UV. Amiodarone and testosterone were used as reference controls.
By kinetic solubility is commonly meant solubility judged after dilution from a stock solution rather than from solid. Consider `C[C@]12CC[C@H]3[C@@H](CCC4=CC(=O)CC[C@@]43C)[C@@H]1CC[C@@H]2O` [testosterone], for which the solubility (kinetic) at 1.5 h is around 330 µM (≈ 95.2 µg/mL).
